{"source": "patent US12116344B2", "about": "“Crystalline forms of a pharmaceutical compound” (Azafaros B.V., priority 2020, dated 2024)", "assay_type_in_all_cases": "physicochemical", "key": {"[1]": {"assay": "Dynamic vapour sorption (DVS), hygroscopicity", "description": "Dynamic vapour sorption (DVS) measurements were performed with an SPS11-100n “Sorptions Prüfsystem” from ProUmid (formerly “Projekt Messtechnik”), August-Nagel-Str. 23, 89079 Ulm (Germany). About 5 mg to 20 mg of sample was put into an aluminum sample pan. Humidity change rates of 5% per hour were used. The applied measurement program can be described as follows:\nThe sample was placed on an aluminium or platinum holder on top of a microbalance and allowed to equilibrate at a relative humidity (RH) of 50% before starting the pre-defined humidity programs: • (1) 2 h at 50% RH • (2) 50→0% RH (5%/h); 5 h at 0% RH • (3) 0→95% RH (5%/h); 5 h at 95% RH • (4) 95→0% RH (5%/h); 5 h at 0% RH • (5) 0→95% RH (5%/h); 5 h at 95% RH • (6) 95→50% RH (5%/h); 2 h at 50% RH"}, "[2]": {"assay": "Stability of the crystalline form (transition of Form 2 into Form 3)", "conditions": "Form 2 transitions into Form 3 above around 30° C. in about 1-5 min, or in solvent for more than 5 min at around 25° C.", "description": "Alternatively, Form 2 transitioned into Form 3 upon equilibration in solvent (e.g. acetone) for more than 5 min at around 25° C."}, "[3]": {"assay": "Approximate solubility by incremental solvent addition with shaking/sonication", "conditions": "for solubility: thermodynamic from solid, about 25° C., approximate, read-out: Solubility S", "description": "Approximate solubilities were determined by incremental addition of solvent to about 10 mg the compound and subsequent shaking and/or sonication for a short period of time. If the substance was not dissolved by addition of a total of at least 10 ml solvent, the solubility is indicated as <1 mg/ml. The experiments were conducted at about 25° C.\nCompound (I) was purified using a silica gel column to remove borate esters followed by a short equilibration in acetonitrile (about 1-5 min). Solubility of purified compound (I) in acetonitrile was determined to be between 5 mg/mL and 8 mg/mL. These values were determined by adding small aliquots of solvent to −10 mg of solid compound (I) and shaking/sonicating for a short period of time at room temperature (about 25° C.)."}}, "note": "Read-outs that look alike come from different tables or passages of the source."}
{"smiles": "OC[C@H]1[C@@H](O)[C@H](O)[C@@H](O)CN1CCCCCOCc1ccc(-c2ccccc2)c(F)c1", "note": "[Form 2]", "values": [{"measurement": "Hygroscopicity (description)", "setting": "[1]", "value": "hygroscopic"}, {"measurement": "Stability of the crystalline form", "setting": "[2]", "value": "low stability"}, {"measurement": "Solubility in water", "setting": "[3]; Form 2 crystalline form, summary Table 3", "value": "~80", "unit": "mg/mL"}]}
{"smiles": "OC[C@H]1[C@@H](O)[C@H](O)[C@@H](O)CN1CCCCCOCc1ccc(-c2ccccc2)c(F)c1", "note": "[compound (I)]", "values": [{"measurement": "solubility", "setting": "[3]; organic solvent or mixture, 1-Propanol", "value": "13 to 15", "unit": "mg/mL"}, {"measurement": "solubility", "setting": "[3]; organic solvent or mixture, 2-Propanol", "value": "19 to 20", "unit": "mg/mL"}, {"measurement": "solubility", "setting": "[3]; organic solvent or mixture, Acetic acid", "value": "> 120", "unit": "mg/mL"}, {"measurement": "solubility", "setting": "[3]; organic solvent or mixture, Acetone", "value": "55 to 73", "unit": "mg/mL"}, {"measurement": "solubility", "setting": "[3]; organic solvent or mixture, Acetonitrile", "value": "5 to 8", "unit": "mg/mL"}, {"measurement": "solubility", "setting": "[3]; organic solvent or mixture, DCM", "value": "> 160", "unit": "mg/mL"}, {"measurement": "solubility", "setting": "[3]; organic solvent or mixture, Ethanol", "value": "40 to 53", "unit": "mg/mL"}, {"measurement": "solubility", "setting": "[3]; organic solvent or mixture, Ethyl acetate", "value": "12 to 13", "unit": "mg/mL"}, {"measurement": "solubility", "setting": "[3]; organic solvent or mixture, MEK", "value": "40 to 50", "unit": "mg/mL"}, {"measurement": "solubility", "setting": "[3]; organic solvent or mixture, Methanol", "value": "> 160", "unit": "mg/mL"}, {"measurement": "solubility", "setting": "[3]; organic solvent or mixture, THF", "value": "> 200", "unit": "mg/mL"}, {"measurement": "solubility", "setting": "[3]; Water", "value": "~80", "unit": "mg/mL"}]}
